Legend:
[1] = target: T1, CAT I V28W mutant (Escherichia coli, UniProt P62577, C126A/C196A/C212A/C31A/C91A/V28W); conditions: chloramphenicol 10 μM; CAT I V28W and fluorescein-linked chloramphenicol fixed at 0.15 μM; excitation 494 nm
Protocol: Fluorescence measurements were performed on a Perkin Elmer LS 50B spectrofluorometer with the excitation wavelength set at 494 nm and the excitation and emission slit width set at 5 nm.

[2] = target: T1, CAT I V28W mutant; experiment: Fluorescence response of fluorescein-linked chloramphenicol to CAT I V28W mutant; format: binding, E. coli; design: His6 (N); made in house; host or cells: E. coli BL21 (DE3); conditions: 0.15 μM fluorescein-linked chloramphenicol, 1.5 μM CAT I V28W (FIG. 6); excitation 494 nm, slit width 5 nm
From the text: The excitation wavelength is 494 nm and the slit width is 5 nm.

Row | SMILES | increase in fluorescence [1] | fluorescence of fluorescein-linked chloramphenicol in the presence of CAT I V28W mutant [2]
1 | O=C(N[C@H](CO)[C@H](O)c1ccc([N+](=O)[O-])cc1)C(Cl)Cl [chloramphenicol] | ~10% | 
2 | O=C(CCCCCNC(=S)Nc1ccc(-c2c3ccc(=O)cc-3oc3cc(O)ccc23)c(C(=O)O)c1)N[C@H](CO)[C@H](O)c1ccc([N+](=O)[O-])cc1 [fluorescein-linked chloramphenicol, 5-(3-(6-(((1R,2R)-1,3-dihydroxy-1-(4-nitrophenyl)propan-2-yl)amino)-6-oxohexyl)thioureido)-2-(6-hydroxy-3-oxo-3H-xanthen-9-yl)benzoic acid] |  | significantly reduced

Reference: US8329425B2, “Method and system for detection of chloramphenicol” (priority 2011, dated 2012)
